Test results taken from ChEMBL document CHEMBL1148500, “Inhibitory activity of cyclohexenyl chalcone derivatives and flavonoids of fingerroot, Boesenbergia rotunda (L.), towards dengue-2 virus NS3 protease” (Bioorg Med Chem Lett, 2006).

What was measured:
[1] = molecular target: Genome polyprotein (dengue virus type 2) (UniProt P29990); assay: Inhibition of dengue2 virus NS2B/NS3 protease activity for Boc-Gly-Arg-Arg-MCA cleavage at 240 ppm
[2] = molecular target: Genome polyprotein (dengue virus type 2) (UniProt P29990); assay: Inhibition of dengue2 virus NS2B/NS3 protease activity for Boc-Gly-Arg-Arg-MCA cleavage at 120 ppm
[3] = molecular target: Genome polyprotein (dengue virus type 2) (UniProt P29990); assay: Inhibition of dengue2 virus NS2B/NS3 protease activity for Boc-Gly-Arg-Arg-MCA cleavage at 400 ppm
[4] = molecular target: Genome polyprotein (dengue virus type 2) (UniProt P29990); assay: Inhibition of dengue2 virus NS2B/NS3 protease activity for Ac-Thr-Arg-Arg-MCA cleavage at 120 ppm
[5] = molecular target: Genome polyprotein (dengue virus type 2) (UniProt P29990); assay: Inhibition of dengue2 virus NS2B/NS3 protease activity for Boc-Gly-Arg-Arg-MCA cleavage at 160 ppm
[6] = molecular target: Genome polyprotein (dengue virus type 2) (UniProt P29990); assay: Inhibition of dengue2 virus NS2B/NS3 protease activity for Ac-Thr-Arg-Arg-MCA cleavage at 240 ppm
[7] = molecular target: Genome polyprotein (dengue virus type 2) (UniProt P29990); assay: Inhibition of dengue2 virus NS2B/NS3 protease activity for Ac-Thr-Arg-Arg-MCA cleavage at 400 ppm
Genome polyprotein = Genome polyprotein (dengue virus type 2, UniProt P29990); assay: Inhibition of dengue2 virus NS3 protease
[8] = molecular target: Genome polyprotein (dengue virus type 2) (UniProt P29990); assay: Inhibition of dengue2 virus NS2B/NS3 protease activity for Boc-Gly-Arg-Arg-MCA cleavage at 40 ppm
[9] = molecular target: Genome polyprotein (dengue virus type 2) (UniProt P29990); assay: Inhibition of dengue2 virus NS2B/NS3 protease activity for Boc-Gly-Arg-Arg-MCA cleavage at 80 ppm

SMILES	inhibition [1] [%]	inhibition [2] [%]	inhibition [3] [%]	inhibition [4] [%]	inhibition [5] [%]	inhibition [6] [%]	inhibition [7] [%]	Ki (Genome polyprotein) [µM]	inhibition [8] [%]	inhibition [9] [%]
O=C1C[C@@H](c2ccccc2)Oc2cc(O)cc(O)c21	47.3	30.1	56.1	–	–	–	–	–	–	–
CC(C)=CC[C@@H]1C(C)=CC[C@@H](c2ccccc2)[C@@H]1C(=O)c1c(O)cc(O)cc1O [4-HYDROXYPANDURATIN A]	97.3	87.6	99.8	90.4	96	96.1	99.2	21	52	78.1
COc1cc(O)cc(O)c1C(=O)/C=C/c1ccccc1 [CARDAMOMIN]	50.1	39.4	71.3	–	–	–	–	377	–	–
COc1cc(O)c(C(=O)[C@@H]2[C@H](CC=C(C)C)C(C)=CC[C@H]2c2ccccc2)c(O)c1 [PANDURATIN A]	92.2	87.7	99.8	47.5	93.7	59.6	90.4	25	27.1	66.7
COc1cc(O)c2c(c1)O[C@H](c1ccccc1)CC2=O [PINOSTROBIN]	–	–	–	76.7	–	80.7	88.7	345	–	–
